The values below come from ChEMBL document CHEMBL1201862, “PubChem BioAssay data set” (2004).

Among the test systems are DMS-114; KM-20L2; SF-268; XF498; NCI-H23; A498; HOP-92; HOP-18; SNB-75; UACC-257; DLD-1; EKVX; IGROV-1; M19-MEL; SW-620; OVCAR-3; NCI-H522; COLO 205; SR; Malme-3M.
Holding throughout (assay): NCI-60 cell line screen, 48 h

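Assay format: 96-well plates, 48-hour exposure. GI50 is the concentration that inhibits growth by half.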 Active and inactive are the calls of the source. No stated cut-off is given here; in the data, active = GI50 up to about 1.1 µM and inactive = higher. Bounds are passed on as bounds.

As to `CC(=O)OC1CC2(O)C(CCC3(C)C(c4ccc(=O)oc4)CCC32O)C2(C)CCC(O)C=C12` (centres undefined), the GI50 was 0.00116 µM (active) with DMS-114; 0.0219 µM (active) with KM-20L2; 0.0375 µM (active) in the test on SF-268; 0.0381 µM (active) with XF498; 0.00246 µM (active) in the test with NCI-H23; 0.0428 µM (active) in the test on A498. Further, the GI50 with HOP-92 was 0.0604 µM (active); in the test on HOP-18, 0.0094 µM (active); with SNB-75, 0.0317 µM (active); in the test on UACC-257, 0.0242 µM (active); with DLD-1, 0.0375 µM (active); with EKVX, 0.0139 µM (active). The GI50 with IGROV-1 was 0.0195 µM (active); with M19-MEL, 0.0234 µM (active); with SW-620, 0.0375 µM (active); in the test with OVCAR-3, 0.00469 µM (active); in the test on NCI-H522, 0.00174 µM (active); in the test with COLO 205, 0.0385 µM (active).
Regarding `CC(=O)OC1CC[C@@]2(C)C(=CC[C@@H]3[C@@H]2CC[C@]2(C)Nc4nn(S(C)(=O)=O)cc4C[C@@H]32)C1` (some centres undefined), the GI50 in the test on NCI-H23 was 35.1 µM (inactive); with A498, > 100 µM (inactive); in the test on SR, 36.4 µM (inactive); in the test with HOP-92 it was 49.5 µM (inactive); in the test with SNB-75, 24.2 µM (inactive); in the test on IGROV-1, 73.6 µM (inactive). The GI50 in the test on Malme-3M was 27.3 µM (inactive); in the test on OVCAR-3, 24.2 µM (inactive); in the test on NCI-H522, 35.2 µM (inactive); in the test with COLO 205 it was 35.7 µM (inactive).
On to `Cc1cc(O)nc(NN2C(Cl)C(=O)C2c2c(O)ccc3ccccc23)n1` (centres undefined), for which the GI50 in the test with DMS-114 was 19.8 µM (inactive); in the test on KM-20L2, 22.6 µM (inactive); in the test with SF-268 it was 23.1 µM (inactive); with NCI-H23, 16.4 µM (inactive); in the test on SR it was 12 µM (inactive); in the test on HOP-92 it was 16.4 µM (inactive). For the same molecule, the GI50 in the test with HOP-18 was 12 µM (inactive); in the test on SNB-75 it was 8.75 µM (inactive); in the test on UACC-257, 31.2 µM (inactive); in the test on EKVX it was 43.8 µM (inactive); in the test on IGROV-1 it was 38.5 µM (inactive); with M19-MEL it was 39.6 µM (inactive). Further, the values for the GI50 with SW-620, in the test on OVCAR-3 and in the test with COLO 205 were 30.2 µM (inactive), 13.2 µM (inactive) and 25.9 µM (inactive), respectively.
Consider `O=C(O)C12CC3CC(C1)C2C=C3P(=O)(O)O` (centres undefined), for which the GI50 in the test with DMS-114, in the test with KM-20L2, with SF-268, with NCI-H23, in the test on HOP-92 and in the test with SNB-75 was > 100 µM (inactive) in each case. The GI50 in the test on UACC-257, in the test with DLD-1, in the test with EKVX, with IGROV-1, with Malme-3M and in the test with M19-MEL was > 100 µM (inactive) in each case. The GI50 in the test on SW-620, in the test with OVCAR-3, in the test on NCI-H522 and in the test with COLO 205 was > 100 µM (inactive) throughout.
As for `CC1(C)CC2(CC(C)(C)N1O)NC(=O)OC2=O`, the GI50 with DMS-114, in the test on KM-20L2, in the test on SF-268, in the test on XF498, with NCI-H23 and in the test with A498 was > 100 µM (inactive) throughout. Also, the GI50 in the test on HOP-92 was > 100 µM (inactive); with HOP-18, > 100 µM (inactive); with SNB-75 it was > 67.3 µM (inactive); with UACC-257, > 100 µM (inactive); in the test on DLD-1, > 100 µM (inactive); with EKVX, > 100 µM (inactive). Also, the GI50 in the test with IGROV-1, in the test on Malme-3M, with M19-MEL, in the test with SW-620, in the test on OVCAR-3 and in the test on NCI-H522 was > 100 µM (inactive) in each case. Further, the GI50 in the test with COLO 205 was > 100 µM (inactive).
Take `CCOC(=O)C1=NN(c2ccccc2)C2=CC(C)=NN(C)C(=S)N21`: the GI50 in the test on SF-268, in the test on NCI-H23, in the test on SR, in the test with HOP-92, in the test with SNB-75 and in the test on UACC-257 was > 100 µM (inactive) each time. For the same molecule, the GI50 in the test on EKVX, in the test on IGROV-1, in the test on SW-620, in the test on OVCAR-3, with NCI-H522 and in the test with COLO 205 was > 100 µM (inactive) throughout.
For `CN1CN(C(=O)N2CN(C)C(=O)N(C)C2)CN(C)C1=O`, the GI50 in the test on DMS-114, in the test with KM-20L2, in the test on SF-268, in the test with XF498, in the test with A498 and with HOP-18 was > 100 µM (inactive) each time. Further, the GI50 in the test with SNB-75, in the test on UACC-257, in the test with DLD-1, in the test with EKVX, with IGROV-1 and in the test with Malme-3M was > 100 µM (inactive) each time. Further, the GI50 in the test on M19-MEL, in the test with SW-620, in the test with OVCAR-3, with NCI-H522 and in the test on COLO 205 was > 100 µM (inactive) in each case.
As to `CCCCCCCCCC[C@@H](O)[C@@H]1CC[C@@H]([C@@H]2CC[C@@H]([C@@H](O)CCCCCCCCCCC(O)CC3=CC(C)OC3=O)O2)O1` (some centres undefined), the GI50 in the test on SF-268 is > 10 µM (inactive); with A498, 5.61 µM (inactive); in the test with SR it was 1.4 µM (inactive); in the test with SNB-75 it was > 10 µM (inactive); with UACC-257, 2.42 µM (inactive); in the test with EKVX, 3.03 µM (inactive). In addition, the GI50 with IGROV-1 was > 10 µM (inactive); with Malme-3M, 1.81 µM (inactive); in the test with SW-620, 8.2 µM (inactive); with NCI-H522, 0.177 µM (active); in the test with COLO 205, > 10 µM (inactive).
On to `CC(=O)NNc1nc(C)c(C(=O)NNC(=O)C(=O)Nc2c(C)cccc2C(C)(C)C)s1`, for which the GI50 in the test with KM-20L2 was 83.4 µM (inactive); with SF-268 it was > 100 µM (inactive); with XF498, > 100 µM (inactive); in the test with NCI-H23, > 100 µM (inactive); in the test on A498, > 100 µM (inactive); in the test with SR it was 48.2 µM (inactive). The GI50 is > 100 µM (inactive) with HOP-92; > 100 µM (inactive) in the test on SNB-75; > 100 µM (inactive) with UACC-257; 61.8 µM (inactive) with DLD-1; > 100 µM (inactive) with EKVX; 93.3 µM (inactive) in the test with IGROV-1. In addition, the GI50 is 48 µM (inactive) in the test with M19-MEL, > 100 µM (inactive) in the test on SW-620, 20.9 µM (inactive) in the test with NCI-H522 and 46.8 µM (inactive) with COLO 205.
Consider `CCP(=S)(CC)CCl`, for which the GI50 is > 100 µM (inactive) in the test on NCI-H23; > 100 µM (inactive) in the test on SR; 73.5 µM (inactive) in the test on HOP-92; > 100 µM (inactive) in the test with SNB-75; > 100 µM (inactive) in the test with UACC-257; > 100 µM (inactive) in the test with IGROV-1. For the same molecule, the GI50 in the test with SW-620, with OVCAR-3, in the test with NCI-H522 and in the test on COLO 205 was > 100 µM (inactive) throughout.
As for `CCCCCOc1ccc(/C=N\c2ccc(-c3ccc(/N=C\c4ccc(OCCCCC)cc4)c(OC)c3)cc2OC)cc1`, the GI50 in the test with DMS-114, in the test with KM-20L2, with SF-268, with XF498, in the test with NCI-H23 and in the test with A498 was > 100 µM (inactive) each time. Moreover, the GI50 in the test on HOP-92 was > 100 µM (inactive); in the test with HOP-18, 24.3 µM (inactive); in the test with SNB-75, 46.9 µM (inactive); with UACC-257, > 100 µM (inactive); in the test on DLD-1 it was > 100 µM (inactive); with EKVX, > 100 µM (inactive). The GI50 in the test on IGROV-1 is > 100 µM (inactive); in the test on Malme-3M it was > 100 µM (inactive); in the test with M19-MEL it was > 100 µM (inactive); in the test on SW-620, > 100 µM (inactive); in the test on OVCAR-3, > 66.2 µM (inactive); in the test on NCI-H522 it was > 100 µM (inactive). Moreover, the GI50 in the test with COLO 205 was > 100 µM (inactive).
Consider `CC(C(=O)OCc1ccccc1)N(Cc1ccccc1)Cc1ccccc1` (centres undefined), for which the GI50 is 60.7 µM (inactive) in the test with DMS-114; > 100 µM (inactive) with KM-20L2; > 100 µM (inactive) in the test with SF-268; 24 µM (inactive) with XF498; 45.2 µM (inactive) in the test with NCI-H23; > 100 µM (inactive) in the test on A498. Also, the GI50 in the test on SR was 31 µM (inactive); in the test on HOP-92, > 100 µM (inactive); in the test with SNB-75 it was 42.7 µM (inactive); with UACC-257 it was 33.7 µM (inactive); with DLD-1 it was > 100 µM (inactive); with EKVX it was > 100 µM (inactive). Moreover, the GI50 was > 100 µM (inactive) with IGROV-1; 51.2 µM (inactive) in the test with Malme-3M; > 100 µM (inactive) in the test on SW-620; > 100 µM (inactive) with OVCAR-3; 29.2 µM (inactive) in the test on NCI-H522; > 100 µM (inactive) in the test with COLO 205.
Take `CN(C)CCNC(=O)c1cccc2nc(-c3ccccc3)oc12`: the GI50 in the test on DMS-114 is 47.1 µM (inactive); in the test on KM-20L2, 28.8 µM (inactive); with SF-268, > 64.6 µM (inactive); with XF498, 34.3 µM (inactive); with NCI-H23 it was 48.3 µM (inactive); with A498 it was 27.7 µM (inactive). Moreover, the GI50 in the test with HOP-92 is 13 µM (inactive); in the test on HOP-18, > 61.2 µM (inactive); in the test on SNB-75, 13.5 µM (inactive); with UACC-257 it was 36.3 µM (inactive); in the test on DLD-1, 31.9 µM (inactive); in the test on EKVX, 6.97 µM (inactive). Further, the GI50 in the test on IGROV-1 is 44 µM (inactive); in the test with Malme-3M, 23.9 µM (inactive); in the test on M19-MEL, 33 µM (inactive); with SW-620, 39.2 µM (inactive); in the test with OVCAR-3, 41.9 µM (inactive); in the test on COLO 205, 17.3 µM (inactive).
